Results from ChEMBL document CHEMBL3244164, “Synthesis and analgesic activity of 1,3-dihydro-3-(substituted phenyl)imidazo[4,5-b]pyridin-2-ones and 3-(substituted phenyl)-1,2,3-triazolo[4,5-b]pyridines” (J Med Chem, 1978).

How the values were obtained:
Rattus norvegicus [1] = experiment: Analgesic activity in Sprague-Dawley rat brewer's yeast treated foot assessed as response threshold at 32 mg/kg, po; format: functional
Rattus norvegicus [2] = experiment: Analgesic activity in Sprague-Dawley rat normal foot assessed as response threshold at 32 mg/kg, po; format: functional

Compound | Activity (Rattus norvegicus [1]) [mm] | Activity (Rattus norvegicus [2]) [mm]
O=c1[nH]c2cccnc2n1-c1ccc2c(c1)CCC2 | <25 | <40
CN(C)c1ccccc1-n1c(=O)[nH]c2cccnc21 | <25 | <40
C=CCn1c(=O)n(-c2cccc(Cl)c2C)c2ncccc21 | <25 | <40
CC(=O)Cn1c(=O)n(-c2ccc3c(c2)OCO3)c2ncccc21 | <25 | <40
O=c1[nH]c2cccnc2n1-c1cccc2c1CCCC2 | <25 | <40
O=c1[nH]c2cccnc2n1-c1ccccc1F | 25 | <40
Cc1cnc2c(c1)[nH]c(=O)n2-c1ccccc1F | 25 | <40
C=CCn1c(=O)n(-c2ccc3c(c2)OCO3)c2ncncc21 | <25 | <40
C=CCn1c(=O)n(-c2ccc(OC)c(OC)c2)c2ncccc21 | <25 | <40
O=c1[nH]c2cccnc2n1-c1ccccc1Br | 25 | <40
Cc1cnc2c(c1)nnn2-c1ccccc1F | <25 | <40
N#Cc1ccccc1-n1nnc2cccnc21 | 25 | <40
O=c1[nH]c2cccnc2n1-c1ccc(Cl)cc1Cl | 25 | <40
Cc1c(Cl)cccc1-n1nnc2cccnc21 | <25 | <40
CCC1(CC)Oc2ccc(-n3c(=O)[nH]c4cccnc43)cc2O1 | <25 | <40
Fc1cccc(-n2nnc3cccnc32)c1 | <25 | <40
CC(=O)OCCn1c(=O)n(-c2ccc3c(c2)OCO3)c2ncccc21 | 25 | <40
O=C(C1CC1)n1c(=O)n(-c2ccc3c(c2)OCO3)c2ncccc21 | <25 | <40
O=c1n(-c2ccc3c(c2)OCO3)c2ncccc2n1S(=O)(=O)C(F)(F)F | <25 | <40
CC(C)=CCn1c(=O)n(-c2ccc3c(c2)OCO3)c2ncccc21 | <25 | <40
C=CCn1c(=O)n(-c2ccc3c(c2)OC2(CCCCC2)O3)c2ncccc21 | <25 | 40
C#CCn1c(=O)n(-c2ccc3c(c2)OCO3)c2ncccc21 | <25 | <40
CCOC(=O)n1c(=O)n(-c2ccc3c(c2)OCO3)c2ncccc21 | <25 | <40

Compound | Activity (Rattus norvegicus [1]) [mm] | Activity (Rattus norvegicus [2]) [mm]
O=c1[nH]c2cc([N+](=O)[O-])cnc2n1-c1ccccc1F | <25 | <40
c1cnc2c(c1)nnn2Cc1ccc2c(c1)OCO2 | <25 | <40
O=c1[nH]c2cccnc2n1Cc1ccc2c(c1)OCO2 | <25 | <40
O=C(O)c1cnc2c(c1)[nH]c(=O)n2-c1ccc2c(c1)OCO2 | <25 | <40
C=C=Cn1c(=O)n(-c2ccc3c(c2)OCO3)c2ncccc21 | <25 | <40
COc1ccc(-n2nnc3cccnc32)c(OC)c1 | <25 | <40
CCc1ccc(-n2nnc3cccnc32)cc1 | <25 | <40
O=c1[nH]c2cccnc2n1-c1cccc(C(F)(F)F)c1 | <25 | <40
CCOC(=O)Cn1c(=O)n(-c2ccc3c(c2)OCO3)c2ncccc21 | <25 | <40
C=CCn1c(=O)n(-c2cccc3c2OCO3)c2ncccc21 | <25 | <40
CCOC(=O)c1cccc(-n2nnc3cccnc32)c1 | <25 | <40
c1cnc2c(c1)nnn2-c1ccncc1 | <25 | <40
CCC1(CC)Oc2ccc(-n3nnc4cccnc43)cc2O1 | <25 | <40
CC1(C)Oc2ccc(-n3c(=O)[nH]c4cccnc43)cc2O1 | <25 | <40
O=c1n(CCc2ccccc2)c2cccnc2n1-c1ccc2c(c1)OCO2 | <25 | <40
Brc1ccccc1-n1nnc2cccnc21 | 25 | <40
Clc1ccc(-n2nnc3cccnc32)cc1Cl | <25 | <40
O=c1[nH]c2cccnc2n1-c1ccc(F)cc1 | 25 | 40
Cc1ccc(-n2c(=O)[nH]c3cccnc32)cc1C | <25 | <40
C=CCn1c(=O)n(-c2ccc3c(c2)OCO3)c2ncccc21.CI | <25 | <40
CC(C)Cc1ccc(-n2c(=O)[nH]c3cccnc32)cc1 | <25 | <40
Cc1ccc(F)c(-n2nnc3cccnc32)c1 | <25 | <40
Cc1ccc(F)c(-n2c(=O)[nH]c3cccnc32)c1 | <25 | 40

Compound | Activity (Rattus norvegicus [1]) [mm] | Activity (Rattus norvegicus [2]) [mm]
N#Cc1cccc(-n2nnc3cccnc32)c1 | <25 | <40
C=CCn1c(=O)n(-c2cccc3c2CCCC3)c2ncccc21 | <25 | <40
NC(=O)c1cccc(-n2nnc3cccnc32)c1 | 25 | <40
O=c1[nH]c2cncnc2n1-c1ccc2c(c1)OCO2 | <25 | <40
c1ccc(Oc2ccc(-n3nnc4cccnc43)cc2)cc1 | <25 | <40
Clc1ccc2nnn(-c3ccccc3)c2n1 | <25 | <40
O=c1[nH]c2cccnc2n1-c1ccc(Cl)c(Cl)c1 | <25 | <40
O=c1[nH]c2cccnc2n1-c1ccc(Oc2ccccc2)cc1 | <25 | <40
O=c1[nH]c2cccnc2n1Cc1ccc(F)cc1 | <25 | <40
O=c1[nH]c2cccnc2n1-c1ccc2c(c1)OCCO2 | <25 | <40
Cc1ccc(-n2nnc3cccnc32)cc1C | <25 | <40
COc1ccc(-n2c(=O)[nH]c3cccnc32)cc1 | <25 | <40
Clc1ccc(-n2nnc3cccnc32)c(Cl)c1 | <25 | 40
O=c1n(-c2ccc3c(c2)OCO3)c2ncccc2n1C(F)(F)C(F)Cl (stereo not drawn) | <25 | <40
Cc1oc2ccc(-n3nnc4cccnc43)cc2c1C | <25 | <40
Clc1ccccc1-n1nnc2cccnc21 | 25 | <40
c1ccc(CCn2nnc3cccnc32)cc1 | <25 | <40
C=CCn1c(=O)n(-c2ccc(C)c(OC)c2)c2ncccc21 | <25 | <40
O=C(O)Cc1ccc(-n2c(=O)[nH]c3cccnc32)cc1 | <25 | <40
Cc1cccc(C)c1-n1nnc2cccnc21 | 25 | <40
C=CCn1c(=O)n(-c2ccc3c(c2)CCC3)c2ncccc21 | <25 | <40
CCOC(=O)c1cccc(-n2c(=O)[nH]c3cccnc32)c1 | <25 | <40
C=CC(C)n1c(=O)n(-c2ccc3c(c2)OCO3)c2ncccc21 (stereo not drawn) | <25 | <40

Compound | Activity (Rattus norvegicus [1]) [mm] | Activity (Rattus norvegicus [2]) [mm]
O=c1[nH]c2cccnc2n1CCc1ccccc1 | <25 | <40
COC(=O)c1cnc2c(c1)nnn2-c1ccccc1F | <25 | <40
Nc1cnc2c(c1)[nH]c(=O)n2-c1ccccc1F | <25 | <40
O=c1[nH]c2cccnc2n1-c1ccc(F)cc1F | 25 | <40
CC(C)=O.O=C(Cn1c(=O)n(-c2ccc3c(c2)OCO3)c2ncccc21)c1ccccc1 | <25 | 40
CCc1ccc(-n2c(=O)[nH]c3cccnc32)cc1 | <25 | <40
O=c1n(CCC2CCCCC2)c2cccnc2n1-c1ccc2c(c1)OCO2 | <25 | <40
Cc1c(Cl)cccc1-n1c(=O)[nH]c2cccnc21 | <25 | <40
O=c1n(-c2ccc3c(c2)OCO3)c2ncccc2n1S(=O)(=O)c1ccc(F)cc1 | <25 | <40
CC1(C)Oc2ccc(-n3nnc4cccnc43)cc2O1 | <25 | <40
Clc1ccc(-n2nnc3cccnc32)cc1 | <25 | <40
O=c1[nH]c2cccnc2n1-c1ccc2c(c1)COCO2 | <25 | <40
CN(C)c1ccccc1-n1nnc2cccnc21 | <25 | <40
O=c1n(Cc2ccccc2)c2cccnc2n1-c1ccc2c(c1)OCO2 | <25 | <40
CC(C)Cc1ccc(-n2nnc3cccnc32)cc1 | <25 | <40
COc1cc(-n2nnc3cccnc32)ccc1C | <25 | <40
c1ccc(-n2nnc3cccnc32)cc1 | <25 | <40
Fc1ccccc1Cn1nnc2cccnc21 | <25 | <40
O=c1n(C2=NCCS2)c2cccnc2n1-c1ccc2c(c1)OCO2 | <25 | <40
O=c1[nH]c2cccnc2n1-c1cccc2c1OCO2 | <25 | <40
